# Laboratory results taken from the supplement of paper PMC4862054.
# Legend:
# Experiment in all cases: normalised response (% of control), CellTiter-Glo; higher = more viable cells (100 = DMSO, 0 = benzethonium chloride kill control)
# Settings in all cases: incubation time: 72 h
# CAL-51 = tested on: CAL-51
# Method in brief: (§1)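 Values are normalised signals, each belonging to one concentration of the series. Breast cancer cells (20 µl suspension) were seeded into 384-well plates with compound at 5 concentrations in 10-fold steps over a compound-specific 10,000-fold range and incubated 72 h. Readouts were CellTox Green fluorescence (485/520 nm), then CellTiter-Glo luminescence after 10 min at room temperature, with each plate set to 0.1 % DMSO as 100 and a positive kill control as 0.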
# MDA-MB-468 [1] = tested on: MDA-MB-468
# Method in brief: as §1
# CAL-148 [2] = tested on: CAL-148
# Method in brief: as §1
# MDA-MB-231 [3] = tested on: MDA-MB-231
# Method in brief: as §1
# MFM-223 [4] = tested on: MFM-223
# Method in brief: as §1
# CAL-85-1 = tested on: CAL-85-1
# Method in brief: as §1
# Hs578T = tested on: Hs578T
# Method in brief: as §1
# BT-474 [5] = tested on: BT-474
# Method in brief: as §1
# HCC1937 [6] = tested on: HCC1937
# Method in brief: as §1
# HCC1143 = tested on: HCC1143
# Method in brief: as §1
# MDA-MB-436 [7] = tested on: MDA-MB-436
# Method in brief: as §1
# BT-549 [8] = tested on: BT-549
# Method in brief: as §1
# CAL-120 [9] = tested on: CAL-120
# Method in brief: as §1
# MDA-MB-453 [10] = tested on: MDA-MB-453
# Method in brief: as §1
# MDA-MB-468 [11] = tested on: MDA-MB-468; remark: listed apart in the source
# Protocol: (§2)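 DSRT, 72 h incubation, CellTox Green / CellTiter-Glo readout. Signal is normalised to DMSO and benzethonium chloride controls. Value is the normalised response at the highest dose.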
# DU-4475 = tested on: DU-4475
# Protocol: as §2
# CAL-148 [12] = tested on: CAL-148; remark: listed apart in the source
# Protocol: as §2
# MCF-10A = tested on: MCF-10A
# Protocol: as §2
# MDA-MB-231 [13] = tested on: MDA-MB-231; remark: listed apart in the source
# Protocol: as §2
# MFM-223 [14] = tested on: MFM-223; remark: listed apart in the source
# Protocol: as §2
# SK-BR-3 = tested on: SK-BR-3
# Protocol: as §2
# BT-474 [15] = tested on: BT-474; remark: listed apart in the source
# Protocol: as §2
# HCC1937 [16] = tested on: HCC1937; remark: listed apart in the source
# Protocol: as §2
# MDA-MB-436 [17] = tested on: MDA-MB-436; remark: listed apart in the source
# Protocol: as §2
# BT-549 [18] = tested on: BT-549; remark: listed apart in the source
# Protocol: as §2
# CAL-120 [19] = tested on: CAL-120; remark: listed apart in the source
# Protocol: as §2
# MDA-MB-453 [20] = tested on: MDA-MB-453; remark: listed apart in the source
# Protocol: as §2
SMILES,normalised response (CAL-51) [%],normalised response (MDA-MB-468 [1]) [%],normalised response (CAL-148 [2]) [%],normalised response (MDA-MB-231 [3]) [%],normalised response (MFM-223 [4]) [%],normalised response (CAL-85-1) [%],normalised response (Hs578T) [%],normalised response (BT-474 [5]) [%],normalised response (HCC1937 [6]) [%],normalised response (HCC1143) [%],normalised response (MDA-MB-436 [7]) [%],normalised response (BT-549 [8]) [%],normalised response (CAL-120 [9]) [%],normalised response (MDA-MB-453 [10]) [%],normalised response (MDA-MB-468 [11]) [%],normalised response (DU-4475) [%],normalised response (CAL-148 [12]) [%],normalised response (MCF-10A) [%],normalised response (MDA-MB-231 [13]) [%],normalised response (MFM-223 [14]) [%],normalised response (SK-BR-3) [%],normalised response (BT-474 [15]) [%],normalised response (HCC1937 [16]) [%],normalised response (MDA-MB-436 [17]) [%],normalised response (BT-549 [18]) [%],normalised response (CAL-120 [19]) [%],normalised response (MDA-MB-453 [20]) [%]
COc1ccc(S(=O)(=O)Nc2cccnc2Nc2ccc(O)cc2)cc1 [ABT-751] (1000 nM),104,36.9,87.2,63.6,69.3,34.7,45.6,63.8,77.8,67.3,38.7,48.9,60.9,54.8,,,,,,,,,,,,,
COc1ccc(S(=O)(=O)Nc2cccnc2Nc2ccc(O)cc2)cc1 [ABT-751] (10000 nM),,,,,,,,,,,,,,,29.2,43.6,41.2,59.8,46.6,38.4,12.3,53.8,71.3,26.8,40.3,61.1,50.9
Cc1cc(Nc2nc(N[C@@H](C)c3ncc(F)cn3)ncc2Cl)[nH]n1 [AZD1480] (100 nM),117,104,87.5,97.8,71.9,100,101,99.7,101,107,103,105,97.3,94.1,,,,,,,,,,,,,
CNC(=O)c1ccccc1Sc1ccc2c(/C=C/c3ccccn3)n[nH]c2c1 [Axitinib] (1000 nM),59.4,83.9,103,111,59.8,117,93.8,102,88.6,94.6,97.8,103,95.3,87.9,,,,,,,,,,,,,
CC(O)(CS(=O)(=O)c1ccc(F)cc1)C(=O)Nc1ccc(C#N)c(C(F)(F)F)c1 (centres undefined) [Bicalutamide] (1000 nM),101,110,102,112,102,107,95.6,110,100,101,107,97.6,108,95,,,,,,,,,,,,,
CCNC(=O)CCC/C=C\C[C@@H]1[C@@H](/C=C/[C@@H](O)CCc2ccccc2)[C@H](O)C[C@@H]1O [Bimatoprost] (550 nM),102,95.2,93.6,97.1,90.3,96.3,93,96.7,94.5,92.5,108,104,97.1,93.2,,,,,,,,,,,,,
COc1cc(Nc2c(C#N)cnc3cc(OCCCN4CCN(C)CC4)c(OC)cc23)c(Cl)cc1Cl [Bosutinib] (1000 nM),77.2,81,101,81.6,84,72.2,102,90.7,78.8,84.7,87.8,95.2,83.8,94.9,,,,,,,,,,,,,
Cn1cc(C2=C(c3cn(C4CCN(Cc5ccccn5)CC4)c4ccccc34)C(=O)NC2=O)c2ccccc21 [Enzastaurin] (1000 nM),74.7,96.3,104,100,97.5,109,104,93.1,98.4,92.4,109,95.8,103,96.1,,,,,,,,,,,,,
CC(C)(C)NC(=O)[C@H]1CC[C@H]2[C@@H]3CC[C@H]4NC(=O)C=C[C@]4(C)[C@H]3CC[C@]12C [Finasteride] (1000 nM),94.6,104,91.8,95.2,103,95,96.6,98.9,99.6,96.6,108,90.7,106,103,,,,,,,,,,,,,
Nc1ccn([C@@H]2O[C@H](CO)[C@@H](O)C2(F)F)c(=O)n1 [Gemcitabine] (100 nM),24.4,28.4,56,85,101,43.1,70,81.8,79.2,44.1,32.6,49.7,78.8,67.7,,,,,,,,,,,,,
